Measurements as given in the Kinase Knowledgebase extract (Sharma et al. 2016).

What follows are compounds tested against MAPK14 (human) (UniProt Q16539) (assay: Inhibition of LPS Stimulated TNF Production by U937 Cells). Conditions: not given.
MAPK14 (human), sequence (Q16539 whole entry, looked up): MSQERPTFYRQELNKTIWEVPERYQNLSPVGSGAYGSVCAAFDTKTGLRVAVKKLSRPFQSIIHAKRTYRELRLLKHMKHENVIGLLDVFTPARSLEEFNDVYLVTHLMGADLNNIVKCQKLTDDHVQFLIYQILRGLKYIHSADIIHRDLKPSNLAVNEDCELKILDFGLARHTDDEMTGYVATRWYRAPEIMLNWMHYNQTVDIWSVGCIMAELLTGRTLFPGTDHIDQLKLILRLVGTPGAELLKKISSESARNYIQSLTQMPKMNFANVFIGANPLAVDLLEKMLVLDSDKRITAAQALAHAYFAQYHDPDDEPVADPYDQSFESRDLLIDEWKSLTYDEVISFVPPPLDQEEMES

`O=C(NCCCc1[nH]nc(-c2ccc(F)cc2)c1-c1ccncc1)NCCc1c[nH]cn1` and `O=C(COc1ccc(Cl)cc1)NCc1[nH]nc(-c2ccc(F)cc2)c1-c1ccncc1` cannot be ordered by IC50: greater than 1000 nM for the first, 1250 nM for the second.

First: CN(C)CCn1cc(-c2ccnc(F)c2)c(-c2ccc(F)cc2)n1
Second: CN(C)CCn1cc(-c2ccnc(N(C)C)c2)c(-c2ccc(F)cc2)n1
The IC50 of the first is lower: 4210 nM for the first, greater than 10000 nM for the second. The first is the more potent here.

Compared with `CNC(=O)CC[C@H](NC(=O)c1cccc(Br)c1)c1[nH]nc(-c2ccc(F)cc2)c1-c1ccncc1`, `C[C@H](NC(=O)NCc1ccccc1)c1[nH]nc(-c2ccc(F)cc2)c1-c1ccncc1` is lower in IC50: greater than 1000 nM for the first, 840 nM for the second.

`O=C(NCc1[nH]nc(-c2ccc(F)cc2)c1-c1ccncc1)c1ccc(F)c(F)c1` and `COc1ccc(C)cc1S(=O)(=O)NCc1[nH]nc(-c2ccc(F)cc2)c1-c1ccncc1` cannot be ordered by IC50: 1010 nM for the first, greater than 1000 nM for the second.

Going from `OCCn1cc(-c2ccncc2)c(-c2ccc(F)cc2)n1` to `Cc1cnccc1-c1cn(C)nc1-c1ccc(F)cc1`, the IC50 rises from 198 nM to 757 nM (3.8-fold). The first is the more potent here.

First: CCCc1n[nH]c(-c2cccc(C)c2)c1-c1ccncc1
Second: CCc1n[nH]c(-c2ccccc2)c1-c1ccncc1
The IC50 of the first is 8.4-fold lower: 29 nM for the first, 243 nM for the second. The first is the more potent here.

Compared with `Cn1cc(-c2ccncc2)c(-c2ccc3c(c2)OCO3)n1`, `Cc1nn(C)c(-c2ccc(Cl)cc2)c1-c1ccncc1` is 8.4-fold higher in IC50: 322 nM for the first, 2700 nM for the second.

First: COc1ccc(S(=O)(=O)N[C@@H](Cc2ccccc2)c2[nH]nc(-c3ccc(F)cc3)c2-c2ccncc2)cc1OC
Second: COc1ccc(CC(=O)N[C@H](Cc2ccccc2)c2[nH]nc(-c3ccc(F)cc3)c2-c2ccncc2)cc1
The IC50 of the first is lower: less than 1000 nM for the first, greater than 1000 nM for the second.

First: Fc1ccc(-c2nn(CCN3CCOCC3)cc2-c2ccnc(F)c2)cc1
Second: N#Cc1cc(-c2c[nH]nc2-c2ccc(F)cc2)ccn1
The IC50 of the first is higher: greater than 10000 nM for the first, 298 nM for the second.

`CC(=O)O[C@@H](C)C(=O)NCc1[nH]nc(-c2ccc(F)cc2)c1-c1ccncc1` and `CCS(=O)(=O)NCc1[nH]nc(-c2ccc(F)cc2)c1-c1ccncc1` are within 1.5-fold of each other in IC50: 6510 nM for the first, 5000 nM for the second.

Compared with `O=S(=O)(Cc1ccccc1)NCc1[nH]nc(-c2ccc(F)cc2)c1-c1ccncc1`, `O=C(N[C@H](Cc1ccccc1)c1[nH]nc(-c2ccc(F)cc2)c1-c1ccncc1)c1ccc(F)c(F)c1F` is higher in IC50: 210 nM for the first, greater than 1000 nM for the second.

Compared with `Cc1c(-c2ccncc2)c(-c2ccc(F)cc2)nn1CC(=O)NCCc1ccc(Oc2ccccc2)cc1`, `COc1ccc(CNc2cc(-c3c[nH]nc3-c3ccc(Cl)cc3)ccn2)cc1` is 1.6-fold lower in IC50: 780 nM for the first, 495 nM for the second.

`O=S(=O)(c1ccc(F)c(F)c1)N1CCC(c2[nH]nc(-c3ccc(F)cc3)c2-c2ccncc2)CC1` and `O=S(=O)(c1cccc(Br)c1)N1CCC(c2[nH]nc(-c3ccc(F)cc3)c2-c2ccncc2)CC1` cannot be ordered by IC50: greater than 1000 nM for the first, greater than 1000 nM for the second.

With `Cc1n[nH]c(-c2ccc(C(F)(F)F)cc2)c1-c1ccncc1` the IC50 was 522 nM.

Same assay, conditions: concentration not given here

First: C[C@@H](NS(=O)(=O)c1ccc(-c2ccon2)s1)c1[nH]nc(-c2ccc(F)cc2)c1-c1ccncc1
Second: C[C@H](NS(=O)(=O)c1cc(Cl)c(Cl)s1)c1[nH]nc(-c2ccc(F)cc2)c1-c1ccncc1
The inhibition of the first is higher: 95% for the first, 79% for the second.

First: Cc1ccc(C)c(S(=O)(=O)NCCCc2[nH]nc(-c3ccc(F)cc3)c2-c2ccncc2)c1
Second: Cc1ccc(F)cc1S(=O)(=O)NCc1[nH]nc(-c2ccc(F)cc2)c1-c1ccncc1
The inhibition of the first is higher: 36% for the first, 24% for the second.

Going from `C[C@@H](NC(=O)c1cccs1)c1[nH]nc(-c2ccc(F)cc2)c1-c1ccncc1` to `C[C@@H](NC(=O)c1ccno1)c1[nH]nc(-c2ccc(F)cc2)c1-c1ccncc1`, the inhibition falls from 70% to 27%.

Going from `Cc1c(-c2ccncc2)c(-c2ccc(F)cc2)nn1CC(=O)N[C@H](C)c1cccc2ccccc12` to `C[C@H](NS(=O)(=O)c1cccc2ccccc12)c1[nH]nc(-c2ccc(F)cc2)c1-c1ccncc1`, the inhibition rises from 23% to 80%.

Going from `C[C@@H](NS(=O)(=O)c1ccc(C#N)cc1)c1[nH]nc(-c2ccc(F)cc2)c1-c1ccncc1` to `C[C@H](NS(=O)(=O)c1ccc(Br)cc1)c1[nH]nc(-c2ccc(F)cc2)c1-c1ccncc1`, the inhibition falls from 90% to 87%.

First: O=C(NCc1[nH]nc(-c2ccc(F)cc2)c1-c1ccncc1)c1ccc(F)c(F)c1
Second: O=C(NCc1[nH]nc(-c2ccc(F)cc2)c1-c1ccncc1)c1ccc(Cl)cc1Cl
The inhibition of the first is higher: 26% for the first, 20% for the second.

Going from `CC(C)c1ccc(S(=O)(=O)N[C@H](C)c2[nH]nc(-c3ccc(F)cc3)c2-c2ccncc2)cc1` to `CCc1ccc(S(=O)(=O)N[C@H](C)c2[nH]nc(-c3ccc(F)cc3)c2-c2ccncc2)cc1`, the inhibition rises from 80% to 92%.

Compared with `Cc1c(Cl)cccc1S(=O)(=O)NCc1[nH]nc(-c2ccc(F)cc2)c1-c1ccncc1`, `Cc1c(Cl)cccc1S(=O)(=O)NCCc1[nH]nc(-c2ccc(F)cc2)c1-c1ccncc1` is higher in inhibition: 15% for the first, 29% for the second.

Compared with `CNC(=O)CC[C@H](NC(=O)C1CC1)c1[nH]nc(-c2ccc(F)cc2)c1-c1ccncc1`, `CC(C)NC(=O)N[C@@H](C)c1[nH]nc(-c2ccc(F)cc2)c1-c1ccncc1` is higher in inhibition: 28% for the first, 47% for the second.

Going from `C[C@H](NC(=O)c1ccc(F)cc1F)c1[nH]nc(-c2ccc(F)cc2)c1-c1ccncc1` to `C[C@H](NC(=O)c1ccc(F)c(F)c1F)c1[nH]nc(-c2ccc(F)cc2)c1-c1ccncc1`, the inhibition falls from 45% to 18%.

Going from `O=C(N[C@H](Cc1ccccc1)c1[nH]nc(-c2ccc(F)cc2)c1-c1ccncc1)c1ccncc1` to `CNC(=O)N[C@@H](Cc1ccccc1)c1[nH]nc(-c2ccc(F)cc2)c1-c1ccncc1`, the inhibition falls from 25% to 11%.

Compared with `CC(C)OC(=O)N[C@H](C)c1[nH]nc(-c2ccc(F)cc2)c1-c1ccncc1`, `Cc1cccc(C)c1NC(=O)N[C@@H](C)c1[nH]nc(-c2ccc(F)cc2)c1-c1ccncc1` is lower in inhibition: 45% for the first, 42% for the second.

Compared with `Cn1cnc(S(=O)(=O)NCc2[nH]nc(-c3ccc(F)cc3)c2-c2ccncc2)c1`, `O=S(=O)(NCc1[nH]nc(-c2ccc(F)cc2)c1-c1ccncc1)c1cc(Cl)cc(Cl)c1O` is lower in inhibition: 24% for the first, 6% for the second.

Going from `Cc1ccc(S(=O)(=O)N[C@@H](Cc2ccccc2)C(=O)NCCCc2[nH]nc(-c3ccc(F)cc3)c2-c2ccncc2)cc1` to `O=S(=O)(N[C@H](Cc1ccccc1)c1[nH]nc(-c2ccc(F)cc2)c1-c1ccncc1)c1cccs1`, the inhibition falls from 36% to 29%.

Compared with `Cc1c(C)c(S(=O)(=O)N[C@@H](C)c2[nH]nc(-c3ccc(F)cc3)c2-c2ccncc2)c(C)c2c1OC(C)(C)CC2`, `Cc1ccccc1S(=O)(=O)N[C@@H](C)c1[nH]nc(-c2ccc(F)cc2)c1-c1ccncc1` is higher in inhibition: 87% for the first, 94% for the second.

Compared with `C[C@H](NS(=O)(=O)c1cc(S(=O)(=O)c2ccccc2)cs1)c1[nH]nc(-c2ccc(F)cc2)c1-c1ccncc1`, `Cc1ccc(S(C)(=O)=O)cc1S(=O)(=O)N[C@@H](C)c1[nH]nc(-c2ccc(F)cc2)c1-c1ccncc1` is lower in inhibition: 90% for the first, 78% for the second.

Going from `O=C(NCc1[nH]nc(-c2ccc(F)cc2)c1-c1ccncc1)c1ccc([N+](=O)[O-])o1` to `Cc1noc(C)c1C(=O)NCc1[nH]nc(-c2ccc(F)cc2)c1-c1ccncc1`, the inhibition falls from 100% to 28%.

First: C[C@H](NC(=O)c1ccccc1F)c1[nH]nc(-c2ccc(F)cc2)c1-c1ccncc1
Second: C[C@H](NC(=O)c1cccc(F)c1)c1[nH]nc(-c2ccc(F)cc2)c1-c1ccncc1
The inhibition of the first is higher: 31% for the first, 21% for the second.

Going from `C[C@@H](NS(=O)(=O)c1ccc(F)cc1F)c1[nH]nc(-c2ccc(F)cc2)c1-c1ccncc1` to `C[C@H](NS(=O)(=O)c1ccc(F)c(Cl)c1)c1[nH]nc(-c2ccc(F)cc2)c1-c1ccncc1`, the inhibition rises from 55% to 85%.

Going from `CSc1cccc(NC(=O)NCc2[nH]nc(-c3ccc(F)cc3)c2-c2ccncc2)c1` to `Cc1cc(C)c(NC(=O)NCc2[nH]nc(-c3ccc(F)cc3)c2-c2ccncc2)c(C)c1`, the inhibition rises from 12% to 25%.

Compared with `O=S(=O)(NCc1[nH]nc(-c2ccc(F)cc2)c1-c1ccncc1)c1ccc(-c2ccccn2)s1`, `COc1ccc(S(=O)(=O)NCc2[nH]nc(-c3ccc(F)cc3)c2-c2ccncc2)c([N+](=O)[O-])c1` is lower in inhibition: 63% for the first, 10% for the second.

First: C[C@@H](NC(=O)c1cccc(Cl)c1Cl)c1[nH]nc(-c2ccc(F)cc2)c1-c1ccncc1
Second: C[C@H](NC(=O)c1cccc(Cl)c1)c1[nH]nc(-c2ccc(F)cc2)c1-c1ccncc1
The inhibition of the first is higher: 43% for the first, 39% for the second.

First: CCOC(=O)NCc1[nH]nc(-c2ccc(F)cc2)c1-c1ccncc1
Second: O=C(NCc1[nH]nc(-c2ccc(F)cc2)c1-c1ccncc1)C(F)(F)F
The inhibition of the first is lower: 48% for the first, 67% for the second.

First: COc1cccc(CC(=O)N[C@@H](C)c2[nH]nc(-c3ccc(F)cc3)c2-c2ccncc2)c1
Second: COc1cccc(CC(=O)N[C@H](C)c2[nH]nc(-c3ccc(F)cc3)c2-c2ccncc2)c1
The inhibition of the first is lower: 14% for the first, 18% for the second.

Compared with `CCCCCCCC(=O)NCc1[nH]nc(-c2ccc(F)cc2)c1-c1ccncc1`, `O=C(NCCCc1[nH]nc(-c2ccc(F)cc2)c1-c1ccncc1)NCc1ccccn1` is higher in inhibition: 4% for the first, 10% for the second.

Going from `CC1(C)[C@H]2CC[C@@]1(CS(=O)(=O)NCc1[nH]nc(-c3ccc(F)cc3)c1-c1ccncc1)C(=O)C2` to `O=S(=O)(NCCc1[nH]nc(-c2ccc(F)cc2)c1-c1ccncc1)c1ccc(Cl)cc1Cl`, the inhibition rises from 20% to 31%.

Going from `C[C@@H](NC(=O)c1cc(F)c(F)cc1F)c1[nH]nc(-c2ccc(F)cc2)c1-c1ccncc1` to `C[C@H](NC(=O)c1cc(F)c(F)cc1F)c1[nH]nc(-c2ccc(F)cc2)c1-c1ccncc1`, the inhibition falls from 52% to 43%.

Compared with `O=C(NCc1[nH]nc(-c2ccc(F)cc2)c1-c1ccncc1)c1cc(F)cc(C(F)(F)F)c1`, `C[C@@H](NC(=O)c1cc(Cl)cc(Cl)c1)c1[nH]nc(-c2ccc(F)cc2)c1-c1ccncc1` is lower in inhibition: 26% for the first, 11% for the second.

Compared with `C[C@H](NS(=O)(=O)c1cccc2cnccc12)c1[nH]nc(-c2ccc(F)cc2)c1-c1ccncc1`, `C[C@@H](NS(=O)(=O)c1cccc(Cl)c1Cl)c1[nH]nc(-c2ccc(F)cc2)c1-c1ccncc1` is higher in inhibition: 75% for the first, 83% for the second.

Compared with `O=S(=O)(c1c(F)cccc1F)N1CCC(c2[nH]nc(-c3ccc(F)cc3)c2-c2ccncc2)CC1`, `Cc1cccc(S(=O)(=O)N2CCC(c3[nH]nc(-c4ccc(F)cc4)c3-c3ccncc3)CC2)c1` is lower in inhibition: 8% for the first, 1% for the second.

First: O=C(c1ccccc1Cl)N1CCC(c2[nH]nc(-c3ccc(F)cc3)c2-c2ccncc2)CC1
Second: O=S(=O)(c1ccccc1)N1CCC(c2[nH]nc(-c3ccc(F)cc3)c2-c2ccncc2)CC1
The inhibition of the first is higher: 85% for the first, 21% for the second.

First: COc1ccc(Cl)cc1S(=O)(=O)N[C@H](C)c1[nH]nc(-c2ccc(F)cc2)c1-c1ccncc1
Second: CC(C)(C)C(=O)N[C@@H](Cc1ccccc1)c1[nH]nc(-c2ccc(F)cc2)c1-c1ccncc1
The inhibition of the first is higher: 87% for the first, 22% for the second.
